Laboratory results as given in paper PMC8878317, “Chemogenomics identifies acetyl-coenzyme A synthetase as a target for malaria treatment and prevention” (Cell Chemical Biology, 2022).
Read-outs that look alike come from different tables or passages of the source.

Columns and labels:
[1] = tested on: P. falciparum MMV019721-resistant lines (3D7-A10 or Dd2-B2 derived); assay: Dose-response assay of MMV019721-selected resistant lines (bulk cultures and clones); format: cell-based; settings: Plasmodium falciparum
Procedure: For in vitro–selected lines, drug susceptibility was measured by SYBR Green I–based assay ([Johnson et al., 2007]; [Smilkstein et al., 2004]). Ring-stage parasites were cultured for 72 hr at 1% hematocrit and 1% starting parasitemia in 384-well black clear-bottom plates containing test compounds plated in triplicate in 12-point serial dilutions. Lysis buffer (0.16% w/v saponin, 1.6% Triton X-100, 5 mM EDTA, and 20 mM Tris-HCl, pH 7.4) with SYBR Green I fluorescent dye (Invitrogen) was added, and fluorescence readings were taken (excitation at 494 nm, emission at 530 nm). Alternatively, Dd2-B2 ring-stage cultures at 0.3% parasitemia and 1% hematocrit were exposed for 72 hr to a range of ten drug concentrations that were 2-fold serially diluted in duplicates along with drug-free controls. Parasite survival was assessed by flow cytometry on an Accuri C6 (BD Biosciences) using SYBR Green and MitoTracker Deep Red FM (Life Technologies) as nucleic acid stain and vital dyes respectively. EC50 values were calculated using a nonlinear regression curve fit in Prism Software version 8 (GraphPad).
Bulk cultures were tested for reduced drug susceptibility and individual clones were isolated by limiting dilution.

P. falciparum parasites = assay: Isobologram analyses (fractional IC50 of compound combinations); format: cell-based; settings: combination with TSA
[2] = tested on: P. falciparum NF54-PfACS11-cKD; assay: cKD compound susceptibility assay, PfACS11 cKD line; format: cell-based; settings: 50 nM aTc vs no aTc
HsAcAS WT = biological target: T1, HsAcAS WT (Homo sapiens, UniProt Q9NR19); assay: HsAcAS Rapid-Fire QQQ mass spectrometry assay; format: biochemical; settings: for IC50: approximate Km for each substrate, read-out: IC50 (μM), AcAS HsWT
T1 construct: made in house; host or cells: Expi293 cells (pCDNA 3.1, transient transfection)
T1 sequence (Q9NR19 whole entry): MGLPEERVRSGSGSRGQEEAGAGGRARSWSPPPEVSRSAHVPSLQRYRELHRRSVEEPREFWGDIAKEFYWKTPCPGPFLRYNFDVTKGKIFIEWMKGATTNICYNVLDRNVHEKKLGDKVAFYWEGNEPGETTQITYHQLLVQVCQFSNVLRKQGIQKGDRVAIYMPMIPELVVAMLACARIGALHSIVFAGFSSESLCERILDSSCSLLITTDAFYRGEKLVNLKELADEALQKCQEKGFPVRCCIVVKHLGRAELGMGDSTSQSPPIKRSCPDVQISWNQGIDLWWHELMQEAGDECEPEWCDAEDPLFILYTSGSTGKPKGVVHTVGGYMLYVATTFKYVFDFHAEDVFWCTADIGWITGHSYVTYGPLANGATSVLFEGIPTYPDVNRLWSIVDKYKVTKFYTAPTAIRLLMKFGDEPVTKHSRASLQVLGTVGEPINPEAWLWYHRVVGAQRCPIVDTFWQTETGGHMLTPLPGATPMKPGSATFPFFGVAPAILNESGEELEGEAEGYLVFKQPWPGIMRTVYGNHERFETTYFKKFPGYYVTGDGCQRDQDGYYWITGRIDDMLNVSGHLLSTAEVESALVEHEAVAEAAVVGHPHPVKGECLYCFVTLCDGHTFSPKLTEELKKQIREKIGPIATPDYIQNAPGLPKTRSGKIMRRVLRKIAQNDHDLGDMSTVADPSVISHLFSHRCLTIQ
Procedure: The human form of acetyl-CoA synthetase was assayed in 100 mM HEPES (pH7.4), 100 mM NaCl, 250 mM KCl, 50 mM MgCl2, 1 mM DTT, 0.005% NP40, 400 μM ATP, 70 μM acetate, 40 μM CoA and 2 nM recombinant HsAcAS. Assay ready plates containing different concentrations of inhibitor were prepared using an Echo 550 acoustic dispenser (Labcyte Inc.), dispensing 150 nL of compound per well. Assays were conducted in a total volume of 15 μL for 30 min at room temperature before being quenched with the addition of 85 μL 1% formic acid containing 0.5 μg/mL n-Propionyl coenzyme A (Sigma P5397) as an internal standard. Reaction products were detected using a RapidFire 365 system (Agilent, Santa Clara, CA) coupled with a triple quadrupole mass spectrometer 6740 (Agilent).
The sipper was washed to minimize carryover with 0.1% TFA in deionized water followed by 0.1% TFA in acetonitrile/deionized water (95%/5%, v/v). The sipper was washed to minimize carryover with deionized water followed by acetonitrile. Aspiration time, load/wash time, elution time, and re-equilibration time were set to 600, 3000, 5000, and 500 ms, respectively, with a cycle time of approximately 10 s. The triple-quadrupole mass spectrometer with electrospray ion source was operated in positive multiple reaction monitoring (MRM) mode. The detailed setting for the mass spectrometer parameters was as follows: capillary voltage, 3000 V; gas temperature, 350°C; gas flow, 7 L/min; nebulizer, 40 psi; sheath gas temperature, 300°C′ sheath gas flow, 11 L/min; and nozzle voltage, 1500 V. The MRM transitions for acetyl-CoA as a reaction product were set as 810.1/303.1 & 810.1/428.1 (quantifier & qualifier with dwell time of 50 ms, 100V fragmentor, and collision energies of 30 & 28 eV respectively) and for n-propionyl-CoA as an internal standard as 824.2/317.2 & 824.2/428.0 (quantifier & qualifier with dwell time of 50 ms, 100V fragmentor, and collision energies of 32 & 26 eV respectively). The mass resolution window for both parental and daughter ions was set at as a unit (0.7 Da). Peak areas were integrated, and area ratios of acetyl-CoA to the internal standard (n-propionyl CoA) were used for quantitation. Data were converted to % inhibition relative to the uninhibited enzyme control and fitted to Equation 3.

[3] = tested on: P. falciparum control YFP cKD line; assay: cKD compound susceptibility assay, control YFP cKD line; format: cell-based; settings: Plasmodium falciparum
Procedure: Synchronous ring-stage, aptamer-regulated PfAcAS and control parasite lines were resuspended in varying aTc concentrations (high = 50 nM, low = 1 nM, and no aTc) and distributed into the drug plate. DMSO carrier and chloroquine (200 nM) wells served as positive and negative controls.

[4] = read-out: control cKD EC50 ± SD (nM) (0nM aTc)
[5] = read-out: control cKD EC50 ± SD (nM) (50nM aTc)

SMILES: CCN(CC)S(=O)(=O)c1ccc(Cl)c(C(=O)Nc2ccc3nc(C)sc3c2)c1 [MMV019721]
- EC50 ([1]; MDR1, read-out: MMV019721 mean EC50 (nM) ± SD (n), selection 9, Dd2-B2, clone B3, AcAS CNV, MDR1 CNV, AP2-I CNV): 1400 ± 200 nM
- EC50 ([1]; read-out: MMV019721 mean EC50 (nM) ± SD (n), selection 1, Dd2-B2, clone E4, AcAS:A597V): 7700 ± 570 nM
- EC50 ([1]; read-out: MMV019721 mean EC50 (nM) ± SD (n), selection 2, Dd2-B2, clone E10, AcAS:A597V): 9200 ± 810 nM
- EC50 ([1]; read-out: MMV019721 mean EC50 (nM) ± SD (n), selection 2, Dd2-B2, clone F12, AcAS:A597V, n=1): 8400 nM
- EC50 ([1]; read-out: MMV019721 mean EC50 (nM) ± SD (n), selection 3, Dd2-B2, clone F2, AcAS:A597V): 9000 ± 490 nM
- EC50 ([1]; read-out: MMV019721 mean EC50 (nM) ± SD (n), selection 3, Dd2-B2, clone F10, AcAS:A597V): 11000 ± 1300 nM
- EC50 ([1]; read-out: MMV019721 mean EC50 (nM) ± SD (n), selection 4, 3D7-A10, Bulk, sequencing not determined): 460 ± 100 nM
- EC50 ([1]; read-out: MMV019721 mean EC50 (nM) ± SD (n), selection 5, 3D7-A10, clone 2B1C, AcAS:T648M): 7700 ± 1200 nM
- EC50 ([1]; read-out: MMV019721 mean EC50 (nM) ± SD (n), selection 5, 3D7-A10, clone 2B1F, AcAS:T648M): 7500 ± 1400 nM
- EC50 ([1]; read-out: MMV019721 mean EC50 (nM) ± SD (n), selection 5, 3D7-A10, clone 2B12B, AcAS:T648M): 7400 ± 500 nM
- EC50 ([1]; read-out: MMV019721 mean EC50 (nM) ± SD (n), selection 6, 3D7-A10, clone 3B1D, AcAS:T648M): 7100 ± 1700 nM
- EC50 ([1]; read-out: MMV019721 mean EC50 (nM) ± SD (n), selection 6, 3D7-A10, clone 3B6H, AcAS:T648M): 6800 ± 420 nM
- EC50 ([1]; read-out: MMV019721 mean EC50 (nM) ± SD (n), selection 6, 3D7-A10, clone 3B11G, AcAS:T648M): 6800 ± 1100 nM
- EC50 ([1]; read-out: MMV019721 mean EC50 (nM) ± SD (n), selection 7, 3D7-A10, clone 4B3D, AcAS:T648M): 7700 ± 1700 nM
- EC50 ([1]; read-out: MMV019721 mean EC50 (nM) ± SD (n), selection 7, 3D7-A10, clone 4B4H, AcAS:T648M): 8400 ± 680 nM
- EC50 ([1]; read-out: MMV019721 mean EC50 (nM) ± SD (n), selection 7, 3D7-A10, clone 4B8B, AcAS:T648M): 7500 ± 1100 nM
- EC50 ([1]; read-out: MMV019721 mean EC50 (nM) ± SD (n), selection 8, Dd2-B2, clone A3, AcAS CNV, AP2-I CNV): 1400 ± 90 nM
- EC50 ([1]; read-out: MMV019721 mean EC50 (nM) ± SD (n), selection 10, Dd2-B2, clone C3, ACS11 INDEL(Leu24-Asp30), AP2-I CNV): 2000 ± 170 nM
- EC50 ([1]; read-out: MMV019721 mean EC50 (nM) ± SD (n), selection 11, 3D7-A10, clone 1E9, sequencing not determined): 3000 ± 250 nM
- EC50 ([1]; read-out: MMV019721 mean EC50 (nM) ± SD (n), selection 11, 3D7-A10, clone 1E12, AcAS: Ala652Thr): 2700 ± 270 nM
- EC50 ([1]; read-out: MMV019721 mean EC50 (nM) ± SD (n), selection 11, 3D7-A10, clone 1G4, sequencing not determined): 2000 ± 600 nM
- EC50 ([1]; read-out: MMV019721 mean EC50 (nM) ± SD (n), selection 11, 3D7-A10, clone 1G8, ACS11:Thr767Ile): 1700 ± 340 nM
- EC50 ([1]; read-out: MMV019721 mean EC50 (nM) ± SD (n), selection 12, 3D7-A10, clone 2B4, AcAS:T648M): 8500 ± 840 nM
- EC50 ([1]; read-out: MMV019721 mean EC50 (nM) ± SD (n), selection 12, 3D7-A10, clone 2C6, sequencing not determined): 2200 ± 770 nM
- EC50 ([1]; read-out: MMV019721 mean EC50 (nM) ± SD (n), selection 12, 3D7-A10, clone 2D11, sequencing not determined): 7100 ± 1300 nM
- EC50 ([1]; read-out: MMV019721 mean EC50 (nM) ± SD (n), selection 12, 3D7-A10, clone 2G6, AcAS: Ala652Thr): 4000 ± 630 nM
- EC50 ([1]; read-out: MMV019721 mean EC50 (nM) ± SD (n), selection 13, 3D7-A10, clone 3B9, sequencing not determined): 2300 ± 680 nM
- EC50 ([1]; read-out: MMV019721 mean EC50 (nM) ± SD (n), selection 13, 3D7-A10, clone 3C7, sequencing not determined): 2300 ± 530 nM
- EC50 ([1]; read-out: MMV019721 mean EC50 (nM) ± SD (n), selection 13, 3D7-A10, clone 3D10, ACS11: Asp269Gly): 1500 ± 82 nM
- EC50 ([1]; read-out: MMV019721 mean EC50 (nM) ± SD (n), selection 13, 3D7-A10, clone 3G8, ACS11: Ser74Leu): 2200 ± 570 nM
- EC50 ([1]; read-out: PfAcAS:A597V-resistant clone EC50, range over A597V clones): 7700 to 11000 nM
- EC50 ([1]; read-out: PfAcAS:T648M EC50, range over T648M clones): 6800 to 8400 nM
- interaction in isobologram analyses with the HDAC inhibitor TSA (P. falciparum parasites): strongly antagonistic
- effect of conditional knockdown of PfACS11 on parasite sensitivity [2]: did not increase parasite sensitivity
- IC50 (HsAcAS WT): > 100 µM
- EC50 [3, 4]: 200 ± 61 nM
- EC50 [3, 5]: 210 ± 80 nM

SMILES: O=C(NNC(=O)c1csnn1)c1ccc(Cl)cc1 [MMV084978]
- effect of conditional knockdown of PfACS11 on parasite sensitivity [2]: did not increase parasite sensitivity
- Hill, AcAS HsWT (HsAcAS WT): 0.85 ± 0.07
- IC50 (HsAcAS WT): 18 ± 1.9 µM
- EC50 [3, 4]: 240 ± 29 nM
- EC50 [3, 5]: 230 ± 23 nM
